Results published in patent publication US20250325535A1, “IDENTIFICATION OF NOVEL SMALL-MOLECULE INHIBITORS OF SARS-CoV-2 BY CHEMICAL GENETICS” (The University of Hong Kong, priority 2024, published 2025).

Columns and labels:
in vitro = type: cell-based; settings: African green monkey
Description: (§1) FIG. 9. MTT cytotoxicity assays of SMART™ finalized hits compounds on VeroE6 cells. VeroE6 cells are treated with compounds of interest diluted from 100 μM to 0.78 μM in a 2-fold interval and incubate for 72 hours.
(§2) Briefly, cells are seeded onto a 96-well plate at a density of 20,000 cells per well one day before treatment. On the following day, compounds of interest are added to the cells in gradient concentrations and incubated at 37° C. with 5% CO2 for either 48 or 96 hours. After medium removal, 100 μL of 1×MTT solution in plain DMEM is added to the cells and incubated at 37° C. with 5% CO2 for 3-4 hours. Then, MTT lysis buffer (10% SDS/10 mM HCl) is added to the cells and incubated at room temperature for 3-4 hours. Cell viability is measured in absorbance (OD595) using a plate reader (Glomax, Promega).

VeroE6 cells = assay: in vitro; type: cell-based; settings: African green monkey, 72 h, 100 μM
Description: as §1, §2

Caco-2 cells = type: in vitro ADME
Description: Caco-2 cells are seeded onto 0.4 μm pore polycarbonate membranes (PC) in 96-well Corning Insert plates at a density of 3.5×10^4 cells/cm2.HBSS with 10.0 mM HEPES at pH 7.40±0.05 as the transport buffer. The compound is subjected to bidirectional testing in triplicate at 2.00 μM. The plate is incubated in a CO2 incubator with 5% CO2 at 37.0° C. and saturated humidity for two hours without shaking. All samples are centrifuged at 3220 g for 10 minutes after being combined with acetonitrile containing internal standard. Using the peak area ratio of the analyte/internal standard, LC-MS/MS techniques are used to quantify the concentrations of the compound in the beginning solution, donor solution, and recipient solution. Following transportation, lucifer yellow rejection assay is applied to determine the Caco-2 cell monolayer integrity.
For data analysis, Permeability (Papp), efflux ratio and Percent recovery are calculated using the following equations: […]

[1] = type: in vitro ADME, CD-1 mouse or human; settings: microsomes
Description: Mouse and Human Liver Microsomes are respectively provided by RILD and coming. They are collected from CD-1 mouse or human and prepared in 100 mM potassium phosphate buffer. […] Aliquots are sampled at 0, 5, 15, 30, 45, and 60 min for LC-MS/MS analysis.

[2] = tested on: 44 selected host targets including 24 GPCRs, 8 ion channels, 7 enzymes, 3 monoamine transporters, and 2 nuclear hormone receptors; settings: 10 μM
SARS-CoV = type: cell-based
[3] = tested on: recombinant WT SARS-CoV-2; assay: microbe, parasite or virus in culture; type: cell-based; settings: for IC50: Severe acute respiratory syndrome coronavirus 2, recombinant WT virus, read-out: IC50 (plaque formation assay)
Wild Type SARS-CoV-2 = assay: Golden Syrian hamster experiment; type: in vivo
MERS-CoV = type: cell-based
[4] = Balb/c mouse, single intraperitoneal 5 mg/kg
HCoV-229E = type: cell-based

| Structure (SMILES) | CC50 at 72 h (in vitro) [nM] | cell viability in MTT assay (VeroE6 cells) | permeability (Caco-2 cells) | metabolic stability [1] | off-target effects on host proteins [2] | reduction of SARS-CoV viral load (SARS-CoV) [log 10] | IC50 [3] [nM] | viral yield reduction in lung and nasal turbinate vs control group (Wild Type SARS-CoV-2; 1 mg/kg IP at 12-hour intervals, day 3) [log 10] | reduction in normalized expression of N gene in cell lysate (MERS-CoV) [log10] | Cmax [4] [µM] | viral RNA reduction in supernatant (HCoV-229E) | inhibition of virus replication ([3]; WT virus) | protection (viral yield reduction) in animal lungs (Wild Type SARS-CoV-2; in vivo) | protection (viral yield reduction) in animal lungs (Wild Type SARS-CoV-2; Nirmatrelvir 200 mg/kg IP, Pelitinib oral 10 mg/kg, 12-hour intervals) [log 10] |
| --- | --- | --- | --- | --- | --- | --- | --- | --- | --- | --- | --- | --- | --- | --- |
| Cc1ccc(C2C3=C(CC(c4ccccc4)CC3=O)NC3=C2C(=O)c2ccccc23)cc1 (stereo not shown) [Compound 172, 10-(4-methylphenyl)-7-phenyl-6,7,8,10-tetrahydro-5H-indeno[1,2-b]quinoline-9,11-dione] | > 100000 | over 90% | moderate | moderate | no significant off-target effects | 1 | 3880 | 1 | > 5 | 6.89 | more than 3 log 10 |  |  |  |
| CCOc1cc2ncc(C#N)c(Nc3ccc(F)c(Cl)c3)c2cc1NC(=O)/C=C/CN(C)C [Pelitinib] |  |  |  |  |  |  | 1620 |  |  |  |  | dose-dependent inhibition of WT virus replication | marginal |  |
| CC(C)(C)[C@H](NC(=O)C(F)(F)F)C(=O)N1C[C@H]2[C@@H]([C@H]1C(=O)N[C@H](C#N)C[C@@H]1CCNC1=O)C2(C)C [Nirmatrelvir] |  |  |  |  |  |  | 18.4 |  |  |  |  |  |  | > 4 |
